The values below come from article PMC10528385 (Antiviral research, 2023).

Molecules are shown by their SMILES.

In assay [1] the target is NA of A/Bethesda/956/2006 A(H3N2), NA-R292K (Influenza A virus, UniProt F1KL32, R292K). The format is biochemical. The note with it: read-out: Susceptibility to NAIs, mean IC50 ± SD.
Assay [2] addresses NA of A/Texas/12/2007 A(H3N2), NA-E119V (Influenza A virus, UniProt D1FVK3, I119V). The assay is described as follows: biochemical.

By IC50 is commonly meant the concentration at which inhibition is half-maximal. Regarding `CC(=O)N[C@H]1[C@H]([C@H](O)[C@H](O)CO)OC(C(=O)O)=C[C@@H]1N=C(N)N` [Zanamivir, zanamivir], the IC50 in assay [1] was 10.6 ± 1.4 nM; in assay [2], 1.3 nM.
